Test: molar heat capacity at constant pressure
Conditions: 101.33 kPa, Liquid, Small sample (50 mg) DSC

CC(=O)[O-].CCCCn1cc[n+](C)c1 [1-butyl-3-methylimidazolium acetate]
Conditions	molar heat capacity at constant pressure [J/K/mol]
253.15 K	359.54
258.15 K	361.57
263.15 K	363.69
268.15 K	365.9
273.15 K	368.21
278.15 K	370.61
283.15 K	373.1
293.15 K	378.36
298.15 K	381.12
303.15 K	383.98
313.15 K	389.98
323.15 K	396.35
333.15 K	403.09
343.15 K	410.2
353.15 K	417.68
363.15 K	425.53
373.15 K	433.75
383.15 K	442.34
393.15 K	451.3
403.15 K	460.63
413.15 K	470.33

From the NIST ThermoML archive (doi:10.1016/j.fluid.2014.10.015)
